Results on 24 molecules are retold here after patent publication US11634434B2, “Bifunctional alpha-synuclein binding agents and uses thereof” (University of Saskatchewan, priority 2016, dated 2023).

The test system of experiment [1] is yeast strain 2AS (2 copies of AS-GFP gene). It counts as cell-based. The protocol: (§1) Third, the drugs were assayed in a yeast model of Parkinson's Disease, which expresses an alpha-synuclein-Green Fluorescent Protein (AS-GFP) construct under the control of a galactose promoter.
Construction of the 1AS and 2AS strains has been described in detail previously.^55 Strains were grown in YPD supplemented with 30 μg/ml of all amino acids. The OD600 was adjusted to 0.05 in drop-out media (no uracil) at 30° C. Drugs were dissolved in methanol at 0.01 micromolar, 0.1 micromolar, 1 micromolar or 10 micromolar followed by addition of 100 micromolar or 5 mM galactose to a final volume of 10 mL.

Experiment [2] has as its system alpha-synuclein-GFP aggregation in yeast strain 2AS. In kind it is cell-based. Conditions: 1 micromolar compound, 5 mM galactose. Here is the method: as §1
For Analysis of AS-GFP distribution, the 2AS strain was grown overnight in drop-out media. After normalization of culture density, galactose was administered to a final concentration of 5 mM. […] For the yeast recovery assay, yeast cells were obtained after 6 hours induction with 5 mM galactose concentration, washed in galactose free media and the compounds were added to a final concentration of 1 micromolar in a 2 mL reaction mixture. The culture was incubated at 30° C. for 3, 6, and 9 hour intervals. Images were obtained at each interval using an Olympus Infinity (BX51) fluorescence microscope at 100× magnification.

Experiment [3] addresses T1, alpha-synuclein (Homo sapiens, UniProt P37840). Put plainly: Nanopore analysis of alpha-synuclein (blockade current histograms). It counts as binding. The following applies: for nanopore profile of additional bifunctional molecules: FIGS. 9A-9D; for binding to alpha-synuclein: method not stated for these compounds. Here is the method: The bifunctional molecules were characterized by four different methods. […] If the compound causes a more compact conformation, then the alpha-synuclein can no longer translocate and it simply bumps into the pore giving rise to a very small change in the blockade current.^44-46
(§2) Nanopore analysis and isothermal titration calorimetry were performed as described previously.^21,54

Experiment [4] addresses T1, alpha-synuclein. Kind of experiment: Isothermal titration calorimetry (ITC) binding to alpha-synuclein. As to Bind to N and C?: key: Y indicates yes; N indicates no. The following applies: for # Binding sites: Table 2; for Bind to N and C?: binds to both N and C portions of alpha-synuclein; for # of Binding sites: bifunctional molecules (or monomers) per alpha-synuclein molecule, best fit. The protocol: as §2
Setting [5] is: 1 micromolar compound + 100 micromolar galactose.
The mark [6] stands for this setting: 1 micromolar compound + 5 mM galactose.

Each structure is given as a SMILES string. Like-named read-outs stand apart in the source and are kept apart here.

As to `CN1CCC[C@H]1c1cccnc1` (racemic) [(R,S)-nicotine, reference compound], in experiment [1] (setting [5]), the “growth of 2AS yeast” value was “rate of growth which is similar to that shown by the WT strain”. The “formation of foci delayed until (time after induction)” value in experiment [2] stood at 9 h.

`Cn1c(=O)c2c(ncn2CCN2CCCC2c2cccnc2)n(C)c1=O` (racemic) [Compound C7-2-N]: the “nanopore profile of additional bifunctional molecules” value on alpha-synuclein [3] is recorded as “bumping peaks, but have a shifted translocation peak visible as well”. In addition, on alpha-synuclein [4], the “# Binding sites” value is reported as 1; the “Bind to N and C?” value is “Y”. Besides, the Ka on alpha-synuclein [4] (Table 2, ITC) amounted to 50000 M⁻¹.

On to `Cn1c(=O)c2c(ncn2CCCCN2CCCC2c2cccnc2)n(C)c1=O` (racemic) [Compound C7-4-N], for which the “nanopore profile of additional bifunctional molecules” value on alpha-synuclein [3] was “bumping peaks, but have a shifted translocation peak visible as well”. Further, at alpha-synuclein [4], the “# Binding sites” value was 1; the “Bind to N and C?” value is listed as “Y”. On alpha-synuclein [4] (Table 2, ITC), the Ka was 3e+06 M⁻¹.

As for `Cn1c(=O)c2c(ncn2CCCCCCN2CCCC2c2cccnc2)n(C)c1=O` (racemic) [Compound C7-6-N], at alpha-synuclein [4] (ITC in 1.0M KCl), the Ka amounted to 5.1e+06 M⁻¹ and the “# of Binding sites” value worked out at 1. Also, at alpha-synuclein [4], the “# Binding sites” value was 1; the “Bind to N and C?” value is on record as “Y”. Also, the Ka on alpha-synuclein [4] (Table 2, ITC) was found to be 5e+06 M⁻¹. Further, the “lag before growth rescue / reaching the growth plateau” value in experiment [1] (setting [6]) is listed as “about 6 hours”.

As to `Cn1c(=O)c2c(ncn2CCCCCCCCN2CCCC2c2cccnc2)n(C)c1=O` (racemic) [Compound C7-8-N], the “nanopore profile of additional bifunctional molecules” value on alpha-synuclein [3] is on record as “bumping peaks, but have a shifted translocation peak visible as well”. On alpha-synuclein [4], the “# Binding sites” value was found to be 1; the “Bind to N and C?” value is “Y”. In addition, the Ka at alpha-synuclein [4] (Table 2, ITC) is 4e+06 M⁻¹.

Regarding `Cn1c(=O)c2c(nc(CCCCCCCCNC3CCc4ccccc43)n2C)n(C)c1=O` (racemic) [Compound C8-8-I], the binding to alpha-synuclein result on alpha-synuclein [3] is “bind to alpha-synuclein”.

As to `Cn1c(=O)c2c(nc(CCCCCCCCN3CCCC3c3cccnc3)n2C)n(C)c1=O` (racemic) [Compound C8-8-N], the binding to alpha-synuclein result at alpha-synuclein [3] was “bind to alpha-synuclein”.

With `NC1CCc2c(F)cccc21` (stereo not drawn) [4-Fluoro-indan-1-yl-amine, reference compound], on alpha-synuclein [4], the “# Binding sites” value is 0.5; the “Bind to N and C?” value is recorded as “Y”. Moreover, the Kd at alpha-synuclein [4] (Table 2, ITC, read-out: Ka (converted)) is 333 nM.

On to `Cn1c(=O)c2c(ncn2CCn2cnc3c2c(=O)n(C)c(=O)n3C)n(C)c1=O` [Compound C7-2-C7], for which the “nanopore profile of additional bifunctional molecules” value on alpha-synuclein [3] was “significant bumping peaks”. In addition, at alpha-synuclein [4], the “# Binding sites” value is on record as 1; the “Bind to N and C?” value is “Y”. The Ka at alpha-synuclein [4] (Table 2, ITC) turned out to be 30000 M⁻¹.

With `Cn1c(=O)c2c(ncn2CCNC2CCc3ccccc32)n(C)c1=O` (stereo not drawn) [Compound C7-2-I], the “nanopore profile of additional bifunctional molecules” value at alpha-synuclein [3] was “significant bumping peaks”. On alpha-synuclein [4], the “# Binding sites” value is 1; the “Bind to N and C?” value is given as “Y”. This molecule showed a Ka at alpha-synuclein [4] (Table 2, ITC) of 90000 M⁻¹.

Turning to `Cn1c(=O)c2c(ncn2CCCCn2cnc3c2c(=O)n(C)c(=O)n3C)n(C)c1=O` [Compound C7-4-C7], the “nanopore profile of additional bifunctional molecules” value at alpha-synuclein [3] is “significant bumping peaks”. Moreover, at alpha-synuclein [4], the “# Binding sites” value is listed as 0.5; the “Bind to N and C?” value is listed as “Y”. Besides, at alpha-synuclein [4] (Table 2, ITC), the Ka amounted to 1e+07 M⁻¹.

As to `Cn1c(=O)c2c(ncn2CCCCNC2CCc3ccccc32)n(C)c1=O` (stereo not drawn) [Compound C7-4-I], on alpha-synuclein [3], the “nanopore profile of additional bifunctional molecules” value is listed as “bumping peaks, but have a shifted translocation peak visible as well”. Also, on alpha-synuclein [4], the “# Binding sites” value is recorded as 1; the “Bind to N and C?” value is reported as “Y”. The same molecule had a Ka at alpha-synuclein [4] (Table 2, ITC) of 5e+06 M⁻¹.

For `Cn1c(=O)c2c(ncn2CCCCCCn2cnc3c2c(=O)n(C)c(=O)n3C)n(C)c1=O` [Compound C7-6-C7], the “nanopore profile (bumping peak / binding)” value on alpha-synuclein [3] (1 micromolar alpha-synuclein, 20 micromolar compound, FIG. 3) is listed as “predominantly bumping peaks”. For the same molecule, at alpha-synuclein [4] (ITC in 1.0M KCl), the Ka stood at 720000 M⁻¹ and the “# of Binding sites” value was determined as 2. In addition, on alpha-synuclein [4], the “# Binding sites” value is 2; the “Bind to N and C?” value is on record as “Y”. The Ka at alpha-synuclein [4] (Table 2, ITC) turned out to be 700000 M⁻¹. The “growth of 2AS yeast” value in experiment [1] (setting [6]) was “marginal growth rescue”.

`Cn1c(=O)c2c(ncn2CCCCCCNC2CCc3ccccc32)n(C)c1=O` (stereo not drawn) [Compound C7-6-I]: at alpha-synuclein [4] (ITC in 1.0M KCl), the Ka turned out to be 2.6e+06 M⁻¹ and the “# of Binding sites” value worked out at 1. Further, at alpha-synuclein [4], the “# Binding sites” value was determined as 1; the “Bind to N and C?” value is on record as “Y”. The Ka at alpha-synuclein [4] (Table 2, ITC) was determined as 2e+06 M⁻¹. Further, in experiment [1] (setting [6]), the “growth of 2AS yeast” value is on record as “moderate growth” and the “lag before growth rescue / reaching the growth plateau” value is on record as “about 6 hours”. Also, the “AS-GFP foci / fluorescence pattern” value in experiment [2] (up to 12 hours) is on record as “more diffuse area of fluorescence”.

In the case of `Cn1c(=O)c2c(ncn2CCCCCCCCn2cnc3c2c(=O)n(C)c(=O)n3C)n(C)c1=O` [Compound C7-8-C7], the “nanopore profile of additional bifunctional molecules” value on alpha-synuclein [3] is “significant bumping peaks”. Besides, on alpha-synuclein [4], the “# Binding sites” value came to 0.5; the “Bind to N and C?” value was “Y”. At alpha-synuclein [4] (Table 2, ITC), the Ka was 400000 M⁻¹.

For `Cn1c(=O)c2c(ncn2CCCCCCCCNC2CCc3ccccc32)n(C)c1=O` (stereo not drawn) [Compound C7-8-I], the “nanopore profile of additional bifunctional molecules” value on alpha-synuclein [3] is given as “bumping peaks, but have a shifted translocation peak visible as well”. At alpha-synuclein [4], the “# Binding sites” value is 0.5; the “Bind to N and C?” value is given as “Y”. Besides, the Ka at alpha-synuclein [4] (Table 2, ITC) amounted to 2e+07 M⁻¹.

For the molecule `Cn1c(=O)c2c(nc(CCc3nc4c(c(=O)n(C)c(=O)n4C)n3C)n2C)n(C)c1=O` [Compound C8-2-C8], on alpha-synuclein [3], the “nanopore profile of additional bifunctional molecules” value is “significant bumping peaks”. Moreover, on alpha-synuclein [4], the “# Binding sites” value was found to be 1; the “Bind to N and C?” value was “Y”. Besides, the Ka at alpha-synuclein [4] (Table 2, ITC) was 900000 M⁻¹.

Regarding `CN(CCCCCCCc1nc2c(c(=O)n(C)c(=O)n2C)n1C)C(=N)NC(=N)N.Cl` [Compound C8-7-M], the “nanopore profile of additional bifunctional molecules” value at alpha-synuclein [3] is on record as “significant bumping peaks”. In addition, on alpha-synuclein [4], the “# Binding sites” value was determined as 2; the “Bind to N and C?” value was “Y”. Also, the Ka at alpha-synuclein [4] (Table 2, ITC) amounted to 640000 M⁻¹.

Molecule `CN1CCCC1c1cccnc1` (stereo not drawn) [Nicotine, nicotine, reference compound] came in with a Kd on alpha-synuclein [4] (Ka) of 1000 nM. In addition, on alpha-synuclein [4], the “# Binding sites” value came out at 1; the “Bind to N and C?” value is “Y”.

With `N[C@@H]1CCc2ccccc21` [R-Aminoindan, reference compound], at alpha-synuclein [4] (ITC in 1.0M KCl), the Ka was 1e+06 M⁻¹ and the “# of Binding sites” value was 1. Further, on alpha-synuclein [4], the “# Binding sites” value is 1; the “Bind to N and C?” value is “Y”. The molecule also returned a Ka on alpha-synuclein [4] (Table 2, ITC) of 1e+06 M⁻¹.

Turning to `CN1CCC[C@@H]1c1cccnc1` [R-Nicotine, reference compound], the “# of Binding sites” value on alpha-synuclein [4] (ITC in 1.0M KCl) stood at 1. Besides, the Kd at alpha-synuclein [4] (Ka) is 714 nM.

Consider `N[C@H]1CCc2ccccc21` [S-Aminoindan, reference compound], for which, on alpha-synuclein [4] (ITC in 1.0M KCl), the Ka amounted to 3.1e+06 M⁻¹ and the “# of Binding sites” value came to 1. For the same molecule, at alpha-synuclein [4], the “# Binding sites” value is recorded as 1; the “Bind to N and C?” value is “Y”. At alpha-synuclein [4] (Table 2, ITC), the Ka is 3e+06 M⁻¹.

Take `CN1CCC[C@H]1c1cccnc1` [S-Nicotine, reference compound]: on alpha-synuclein [4] (ITC in 1.0M KCl), the Ka amounted to 400000 M⁻¹ and the “# of Binding sites” value is on record as 1.

`C=C(C)[C@H]1Cc2c(ccc3c2O[C@@H]2COc4cc(OC)c(OC)cc4[C@@H]2C3=O)O1` [rotenone, reference compound]: the “growth of 2AS yeast” value in experiment [1] (setting [5]) is “significant reduction of growth”.
